From patent US12435080B2, “sGC stimulators” (Tisento Therapeutics Inc., priority 2016, dated 2025)
pEC50: −log10 of the molar value. Where two headings read alike, the source gives them in different places.

Target: T1, sGC enzyme (Homo sapiens, UniProt Q02108+Q02153)
T1 construct: incorporated into these cells detect cGMP formed by the compounds stimulating the sGC enzyme; host or cells: HEK293 cells stably expressing GloSensor 40F cGMP biosensor
T1 sequence (Q02153 1-619): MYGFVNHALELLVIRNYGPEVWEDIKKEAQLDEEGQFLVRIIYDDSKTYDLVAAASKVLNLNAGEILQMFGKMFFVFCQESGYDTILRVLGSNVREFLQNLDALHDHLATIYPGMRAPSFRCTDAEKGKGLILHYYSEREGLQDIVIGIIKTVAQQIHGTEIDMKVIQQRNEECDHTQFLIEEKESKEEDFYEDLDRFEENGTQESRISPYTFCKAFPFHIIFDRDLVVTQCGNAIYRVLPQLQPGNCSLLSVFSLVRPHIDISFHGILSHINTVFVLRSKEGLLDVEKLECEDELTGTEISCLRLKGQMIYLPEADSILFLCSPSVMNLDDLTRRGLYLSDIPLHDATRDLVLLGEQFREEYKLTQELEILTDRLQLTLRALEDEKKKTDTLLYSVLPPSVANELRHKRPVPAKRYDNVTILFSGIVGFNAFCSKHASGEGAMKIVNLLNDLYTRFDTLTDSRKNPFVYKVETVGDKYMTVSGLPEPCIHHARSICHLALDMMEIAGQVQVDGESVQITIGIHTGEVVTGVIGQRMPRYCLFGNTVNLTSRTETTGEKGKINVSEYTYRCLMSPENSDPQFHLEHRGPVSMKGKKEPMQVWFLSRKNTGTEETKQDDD
T1 sequence (Q02108 1-690): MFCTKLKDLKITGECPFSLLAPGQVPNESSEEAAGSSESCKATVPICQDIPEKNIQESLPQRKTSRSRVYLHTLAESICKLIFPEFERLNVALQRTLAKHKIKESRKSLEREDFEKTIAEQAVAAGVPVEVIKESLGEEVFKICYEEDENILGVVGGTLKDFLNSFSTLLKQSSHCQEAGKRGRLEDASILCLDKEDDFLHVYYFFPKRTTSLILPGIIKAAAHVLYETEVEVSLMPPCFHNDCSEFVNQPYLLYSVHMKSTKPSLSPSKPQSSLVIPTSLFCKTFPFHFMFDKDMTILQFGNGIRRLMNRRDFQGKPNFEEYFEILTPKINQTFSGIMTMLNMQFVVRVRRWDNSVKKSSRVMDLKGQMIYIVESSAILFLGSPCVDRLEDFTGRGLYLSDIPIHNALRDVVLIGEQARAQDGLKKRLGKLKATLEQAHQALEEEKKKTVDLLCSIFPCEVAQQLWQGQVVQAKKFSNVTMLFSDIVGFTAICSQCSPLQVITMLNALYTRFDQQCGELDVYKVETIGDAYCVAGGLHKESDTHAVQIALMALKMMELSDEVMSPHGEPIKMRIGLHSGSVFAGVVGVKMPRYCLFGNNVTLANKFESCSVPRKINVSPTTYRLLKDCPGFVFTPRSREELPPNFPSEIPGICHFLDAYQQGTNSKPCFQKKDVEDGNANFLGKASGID
Assay: cGMP GloSensor cell-based assay, 384-well format
Conditions: HEK293 cells expressing GloSensor 40F cGMP, 10 μM DETA-NONOate, normalized to 30 μM Compound Y
Text: Human embryonic kidney cells (HEK293) cells expressing GloSensor™ 40F cGMP (Part No: CS182801, Promega) were used to evaluate the activity of test compounds. The luminescent biosensors (engineered luciferase) that were incorporated into these cells detect cGMP formed by the compounds stimulating the sGC enzyme and emit luminescence.
cGMP GloSensor cells were maintained in Dulbecco's Modification of Eagle's Medium (DMEM) supplemented with fetal bovine serum (FBS, 10% final) and hygromycine (200 ug/ml). […] Cells were incubated overnight at 37° C. in a humidified chamber with 5% CO2. The next day, medium was removed and cells were replaced with 40 ul/well of GloSensor™, 2 mM (Promega Cat No E1291). Cells were treated for 90 minutes at 25° C. to allow the substrate to equilibrate in the cells. […] For endpoint SAR screening, data were collected after 55 min incubation at room temperature.
Data were fit using a 4-parameter fit (log(agonist) vs. response—variable slope) using GraphPad Prism Software v.5. n=2 for all compounds. […] Compounds failing to elicit a minimum response of 50% are reported as >30 μM or ND.

[1] = compounds in Table IA, read-out: Glo-sensor AbsEC50
[2] = compounds in Table IB, read-out: Glo-sensor Abs EC50

Structure (SMILES)	pEC50 [1]	pEC50 [2]
CC(F)(F)c1n[nH]c(-c2nn(Cc3ccccc3F)c3ncccc23)n1 [Compound I-36, 3-(3-(1,1-difluoroethyl)-1H-1,2,4-triazol-5-yl)-1-(2-fluorobenzyl)-1H-pyrazolo[3,4-b]pyridine]	> 7.00	–
Cc1ncc(Cc2nc(-c3nc(C(F)(F)F)n[nH]3)n3ccc(Cl)cc23)cn1 [Compound I-29, 7-Chloro-1-((2-methylpyrimidin-5-yl)methyl)-3-(3-(trifluoromethyl)-1H-1,2,4-triazol-5-yl)imidazo[1,5-a]pyridine]	–	6.00 to 7.00
Fc1ccccc1Cc1nc(-c2nc(C(F)(F)F)n[nH]2)n2ncccc12 [Compound I-24, 5-(2-Fluorobenzyl)-7-(3-(trifluoromethyl)-1H-1,2,4-triazol-5-yl)imidazo[1,5-b]pyridazine]	–	< 6.00
Cc1n[nH]c(-c2nn(Cc3ccccc3F)c3ncccc23)n1 [Compound I-60, 1-(2-Fluorobenzyl)-3-(3-methyl-1H-1,2,4-triazol-5-yl)-1H-pyrazolo[3,4-b]pyridine]	> 7.00	–
Fc1ccccc1Cn1nc(-c2nc(C(F)(F)F)n[nH]2)c2ncccc21 [Compound I-35, 1-(2-Fluorobenzyl)-3-(3-(trifluoromethyl)-1H-1,2,4-triazol-5-yl)-1H-pyrazolo[4,3-b]pyridine]	< 6.00	–
Cc1ncc(Cn2nc(-c3nc(C(F)(F)F)n[nH]3)c3cccc(Cl)c32)cn1 [Compound I-46, 7-Chloro-1-((2-methylpyrimidin-5-yl)methyl)-3-(3-(trifluoromethyl)-1H-1,2,4-triazol-5-yl)-1H-indazole]	6.00 to 7.00	–
CC1(c2n[nH]c(-c3nn(Cc4ccccc4F)c4ncccc34)n2)CC1 [Compound I-63, 1-(2-Fluorobenzyl)-3-(3-(1-methylcyclopropyl)-1H-1,2,4-triazol-5-yl)-1H-pyrazolo[3,4-b]pyridine]	> 7.00	–
Cc1ncc(Cc2nc(-c3nc(C(F)(F)F)n[nH]3)n3cc(Cl)ccc23)cn1 [Compound I-34, 6-Chloro-1-((2-methylpyrimidin-5-yl)methyl)-3-(3-(trifluoromethyl)-1H-1,2,4-triazol-5-yl)imidazo[1,5-a]pyridine]	–	< 6.00
Fc1ccccc1Cn1nc(-c2nc(C(F)(F)Cl)n[nH]2)c2cccnc21 [Compound I-65, 3-(3-(Chlorodifluoromethyl)-1H-1,2,4-triazol-5-yl)-1-(2-fluorobenzyl)-1H-pyrazolo[3,4-b]pyridine]	> 7.00	–
Fc1ccc(Cn2nc(-c3nc(C(F)(F)F)n[nH]3)c3cccnc32)cc1 [Compound I-53, 1-(4-Fluorobenzyl)-3-(3-(trifluoromethyl)-1H-1,2,4-triazol-5-yl)-1H-pyrazolo[3,4-b]pyridine]	> 7.00	–
FC(F)(F)c1n[nH]c(-c2nc(Cc3cncnc3)c3ncccn23)n1 [Compound I-17]	–	> 7.00
Fc1cc(F)cc(Cn2nc(-c3nc(C(F)(F)F)n[nH]3)c3cccnc32)c1 [Compound I-51, 1-(3,5-Difluorobenzyl)-3-(3-(trifluoromethyl)-1H-1,2,4-triazol-5-yl)-1H-pyrazolo[3,4-b]pyridine]	> 7.00	–
Fc1ccccc1Cn1nc(-c2nc(C(F)(F)F)n[nH]2)c2cnccc21 [Compound I-43, 1-(2-Fluorobenzyl)-3-(3-(trifluoromethyl)-1H-1,2,4-triazol-5-yl)-1H-pyrazolo[4,3-c]pyridine]	< 6.00	–

Next, values leading:

pEC50 [1]	pEC50 [2]	Structure (SMILES)
< 6.00	–	Fc1ccccc1Cn1nc(-c2nc(N3CC(F)(F)C3)n[nH]2)c2cccnc21 [Compound I-88, 3-(3-(3,3-difluoroazetidin-1-yl)-1H-1,2,4-triazol-5-yl)-1-(2-fluorobenzyl)-1H-pyrazolo[3,4-b]pyridine]
> 7.00	–	CC(O)c1n[nH]c(-c2nn(Cc3ccccc3F)c3ncccc23)n1 (centres unmarked) [Compound I-107, 1-(5-(1-(2-Fluorobenzyl)-1H-pyrazolo[3,4-b]pyridin-3-yl)-1H-1,2,4-triazol-3-yl)ethanol]
6.00 to 7.00	–	Fc1cc(F)cc(Cc2nn(-c3nc(C(F)(F)F)n[nH]3)c3cccnc23)c1 [Compound I-121, 3-(3,5-Difluorobenzyl)-1-(3-(trifluoromethyl)-1H-1,2,4-triazol-5-yl)-1H-pyrazolo[4,3-b]pyridine]
< 6.00	–	Fc1ccccc1Cn1nc(-c2nc(C3(c4ccccc4)CC3)n[nH]2)c2cccnc21 [Compound I-81, 1-(2-Fluorobenzyl)-3-(3-(1-phenylcyclopropyl)-1H-1,2,4-triazol-5-yl)-1H-pyrazolo[3,4-b]pyridine]
> 7.00	–	Fc1ccccc1Cn1nc(-c2nc(C3CC3)n[nH]2)c2cccnc21 [Compound I-68, 3-(3-Cyclopropyl-1H-1,2,4-triazol-5-yl)-1-(2-fluorobenzyl)-1H-pyrazolo[3,4-b]pyridine]
6.00 to 7.00	–	Fc1cccc(Cc2nn(-c3nc(C(F)(F)F)n[nH]3)c3cccnc23)c1 [Compound I-120, 3-(3-Fluorobenzyl)-1-(3-(trifluoromethyl)-1H-1,2,4-triazol-5-yl)-1H-pyrazolo[4,3-b]pyridine]
> 7.00	–	Cc1ncc(Cn2nc(-c3nc(C)n[nH]3)c3cccnc32)cn1 [Compound I-113, 3-(3-Methyl-1H-1,2,4-triazol-5-yl)-1-((2-methylpyrimidin-5yl)methyl)-1H-pyrazolo[3,4-b]pyridine]
6.00 to 7.00	–	CN(C)C(=O)c1n[nH]c(-c2nn(Cc3ccccc3F)c3ncccc23)n1 [Compound I-74, 5-(1-(2-fluorobenzyl)-1H-pyrazolo[3,4-b]pyridin-3-yl)-N,N-dimethyl-1H-1,2,4-triazole-3-carboxamide]
6.00 to 7.00	–	O=C(N1CC(c2n[nH]c(-c3nn(Cc4ccccc4F)c4ncccc34)n2)C1)C(F)(F)F [Compound I-75]
6.00 to 7.00	–	CC1(c2n[nH]c(-c3nn(Cc4ccccc4F)c4ncccc34)n2)CC1(F)F (centres unmarked) [Compound I-87, 3-(3-(2,2-Difluoro-1-methylcyclopropyl)-1H-1,2,4-triazol-5-yl)-1-(2-fluorobenzyl)-1H-pyrazolo[3,4-b]pyridine]
> 7.00	–	Fc1ccccc1Cn1nc(-c2nc(NCCC(F)(F)F)n[nH]2)c2cccnc21 [Compound I-89]
< 6.00	–	NC1(c2n[nH]c(-c3nn(Cc4ccccc4F)c4ncccc34)n2)COC1 [Compound I-79, 3-(5-(1-(2-fluorobenzyl)-1H-pyrazolo[3,4-b]pyridin-3-yl)-1H-1,2,4-triazol-3-yl)oxetan-3-amine]
> 7.00	–	[2H]C([2H])([2H])c1n[nH]c(-c2nn(Cc3ccccc3F)c3ncccc23)n1 [Compound I-91, 1-(2-Fluorobenzyl)-3-(3-(methyl-d3)-1H-1,2,4-triazol-5-yl)-1H-pyrazolo[3,4-b]pyridine]
6.00 to 7.00	–	Nc1n[nH]c(-c2nn(Cc3ccccc3F)c3ncccc23)n1 [Compound I-84, 5-(1-(2-fluorobenzyl)-1H-pyrazolo[3,4-b]pyridin-3-yl)-1H-1,2,4-triazol-3-amine]
6.00 to 7.00	–	C=COCc1n[nH]c(-c2nn(Cc3ccccc3F)c3ncccc23)n1 [Compound I-117]
< 6.00	–	Fc1ccccc1Cn1nc(-c2nc(C3CCOCC3)n[nH]2)c2cccnc21 [Compound I-78, 1-(2-Fluorobenzyl)-3-(3-(tetrahydro-2H-pyran-4-yl)-1H-1,2,4-triazol-5-yl)-1H-pyrazolo[3,4-b]pyridine]
